Reference: patent publication US10435333B2, “High temperature amine-stabilized DCD and/or alkyl thiophosphoric triamide solvent systems and use in agricultural applications” (RHODIA OPERATIONS, priority 2015, dated 2019)

Legend:
[1] = degradation of NBPT at high temperature (colour change, sludge/precipitate); type: physicochemical
Experimental: Another problem is that certain nitrification inhibitors and/or urease inhibitors degrade at high temperatures. […] Often times temperatures in agricultural fields (e.g., corn fields, wheat fields, etc.) reach in excess of 35° C. and sometimes can reach up to 45° C. or higher. For example, at 45° C. […] Thus, it is also desirable to have solvent systems containing nitrification inhibitors and/or urease inhibitors that are stabilized at high temperatures, such as those unitized in hot climates or weather. This invention addresses the addition of stabilizers to prolong the chemical and physical stability of formulated liquid agricultural compositions containing (i) one or more nitrification inhibitors, (ii) one or more urease inhibitors or (iii) a combination of both (i) and (ii). In one embodiment, the urease inhibitor is NBPT.

[2] = cited from earlier work
[3] = visual physical stability of NBPT/DMSO formulation with 2 wt % amine stabilizer at high temperature (FIG. 1); type: physicochemical; details: 2 wt % amine stabilizer in NBPT/DMSO formulation, greater than 45° C.
Experimental: FIG. 1 is a photograph of Several amines or amides were tested to check if they can stabilize NBPT degradation at high temperatures (at greater than 45° C.) in NBPT/DMSO formulation. Each sample was prepared with 2% of amine stabilizer added.
Referring to FIG. 1, Several amines or amides were tested to check if they can stabilize NBPT degradation at high temperatures (at greater than 45° C.) in NBPT/DMSO formulation. Each sample was prepared with 2 wt % of amine stabilizer added.

CCCCNP(N)(N)=S [NBPT, N-(n-butyl)-thiophosphoric triamide]
appearance after exposure to high heat ([1]; 45° C., NBPT formulated in different solvents, days to weeks): changes color in days from colorless to a darker green/brown, followed by sludge/precipitate formation after weeks
degradation at higher temperature ([1]; typically above 45° C.): degrades rapidly

N#CNC(=N)N [Dicyandiamide, 2-cyanoguanidine]
solubility in water [2]: about 41 g/l

NCCO [monoethanolamine]
physical stability by visual observation (appearance) [3]: better physical stability (less dark appearance)
